# Results: patent publication US20200330420A1, “LONG CHAIN FATTY ACID FORMULATIONS AND THEIR USE IN INHIBITING SALMONELLA INFECTION” (priority 2019, published 2020)
# Experiments:
# [1] = tested on: hilA expression; assay: Luciferase assay, hilA::luxCDABE reporter fusion; format: cell-based
# Excerpt: (§1) Strains. Salmonella enterica subsp. enterica serovar Typhimurium 14028s, and mutants thereof, were used throughout. Deletion mutants were constructed as previously described (K. A. Datsenko et al., PNAS USA, 97(12), 6640-6645, 2000). Briefly, PCR fragments of kanamycin and chloramphenicol resistance genes containing 40 base pair homology extensions flanking the gene of interest were generated using pKD4 and pKD3 plasmids. The PCR fragments were transformed into a strain expressing λ Red recombinase. Loss of the gene of interest was confirmed using PCR. Unmarked mutants were generated using a helper plasmid pCP20 carrying a gene encoding the FLP recombinase. Marked deletions and constructs were transferred using bacteriophage P22 transduction (N. L. Sternberg et al., Methods Enzymol., 204, 18-43, 1991).
# (§2) Luciferase assays. Strains carrying luxCDABE reporter fusions were grown overnight in LB with the necessary antibiotics. Overnight cultures were diluted 100-fold into M9 minimal medium with glucose, antibiotics and 1 mM nonanoic acid (added to repress SPI invasion gene expression to eliminate background luminescence), and grown overnight. The cultures were washed three times with PBS. Bacteria were inoculated at a starting OD600 of 0.02 into 150 μL of LB containing 100 mM MOPS pH 6.7, the necessary antibiotics and compounds to be tested, in a sealed black-walled 96 well plate. Luminescence was measured every 30 minutes for 24 hours using a Biotek Synergy™ H1 microplate reader.
# [2] = tested on: sopB expression; assay: Luciferase assay, sopB::luxCDABE reporter fusion; format: cell-based; settings: ΔhilD mutant, rtsA under tetracycline-inducible promoter; 20 μM; FIG. 4A
# Excerpt: as §1
# as §2, with “Bacteria were inoculated at a starting OD600 of 0.02 into 150 μL of LB containing 100 mM MOPS pH 6.7, the necessary antibiotics and compounds to be tested, in a sealed black-walled 96 well plate.” left out
# [3] = target: HilC (Salmonella typhimurium, UniProt P0CL09); assay: Electrophoretic mobility shift assay, HilC binding to hilA promoter DNA; settings: FIG. 7
# Sequence of HilC (P0CL09 whole entry): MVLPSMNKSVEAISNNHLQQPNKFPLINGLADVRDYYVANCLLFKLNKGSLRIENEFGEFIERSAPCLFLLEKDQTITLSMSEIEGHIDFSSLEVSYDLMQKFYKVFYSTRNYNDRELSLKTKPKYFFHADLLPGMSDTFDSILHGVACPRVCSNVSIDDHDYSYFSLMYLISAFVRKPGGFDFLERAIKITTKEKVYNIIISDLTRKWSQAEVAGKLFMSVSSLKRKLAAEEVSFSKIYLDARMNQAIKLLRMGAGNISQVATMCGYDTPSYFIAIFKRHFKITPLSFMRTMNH
# Procedure: (§3) Electrophoretic mobility shift assays (EMSAs). EMSAs were performed as previously described (Y. A. Golubeva et al., M Bio, 7(1), 2016). Briefly, 10 nM of hilA promoter DNA was mixed with 150 μM HilD, HilC or RtsA in a binding buffer containing 20 mM KCl, 1% glycerol, 1 mM DTT, 0.04 mM EDTA, 0.05% Tergitol™ NP-40 and 20 mM HEPES, pH 7.3. cis-2-hexadecenoic acid was tested at concentrations of […] Binding was performed at room temperature for 20 minutes. Samples were separated on 6% Novex® TBE DNA retardation gels, and DNA was stained using SYBR® green (Invitrogen).
# [4] = tested on: RtsA; assay: Electrophoretic mobility shift assay, RtsA binding to hilA promoter DNA; design: species or system Salmonella; settings: FIG. 7
# Procedure: as §3
# [5] = target: T1, HilD (Salmonella typhimurium, UniProt P0CL08); assay: Electrophoretic mobility shift assay, HilD binding to hilA promoter DNA; design: 6xHis-NusA (followed by an HRV 3C protease site) (N, cleaved yes); made in house; host or cells: E. coli BL21(DE3), vector pCAV4; settings: FIG. 7
# T1 sequence (P0CL08 whole entry): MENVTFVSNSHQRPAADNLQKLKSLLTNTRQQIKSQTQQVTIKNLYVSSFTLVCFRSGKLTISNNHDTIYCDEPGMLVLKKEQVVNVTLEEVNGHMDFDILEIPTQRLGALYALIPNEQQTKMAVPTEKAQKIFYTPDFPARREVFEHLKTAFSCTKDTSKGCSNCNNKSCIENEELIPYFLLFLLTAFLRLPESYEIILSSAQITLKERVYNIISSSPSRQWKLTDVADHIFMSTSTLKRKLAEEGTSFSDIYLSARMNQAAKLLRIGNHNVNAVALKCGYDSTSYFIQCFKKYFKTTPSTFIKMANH
# [6] = target: T1, HilD; assay: HilD half-life assay (western blot of HilD-3xFLAG); format: cell-based; design: expressed in transfected cells; host or cells: Salmonella Typhimurium 14028s derivative carrying PtetRA-hilD-3xFLAG, with Lon present or absent; settings: Lon mutant (absence of Lon); 20 μM; FIG. 5A
# [7] = chain length comparison, FIG. 1E
# [8] = hilD only: ΔrtsA ΔhilC, hilD under tetracycline-inducible promoter, 20 μM, FIG. 4C
# [9] = 10, 25, 50 and 75 μM fatty acid
smiles,measurement,setting,value
CCCCCCCCC/C=C\C(=O)O [cis-2-dodecenoic acid],reduction of hilA expression,[1]; [7],3 fold
"CCCCCCCCCCCCC/C=C\C(=O)O [c2-HDA, Cis-2-hexadecenoic acid]",repression of hilA expression,"[1]; 1 μM, FIG. 1B",80 fold
same,reduction of hilA expression,[1]; [7],159 fold
same,reduction of hilA expression,"[1]; hilC only (tetracycline-inducible), null hilD and rtsA, FIG. 6B",20 fold
same,repression of hilA in a hilD mutant,"[1]; hilD mutant, FIG. 4A",modest repression
same,repression of hilA expression,[1]; [8],78 fold
same,reduction of hilA expression,"[1]; rtsA only (tetracycline-inducible), null hilD and hilC, FIG. 6A",13 fold
same,repression of hilA expression,"[1]; Δlon mutation, 20 μM, FIG. 5B",continued to repress hilA expression
same,repression of sopB expression,[2],11 fold
same,binding of HilC to the hilA promoter,[3]; 100 μM fatty acid,prevented binding to the hilA promoter
same,binding of HilC to the hilA promoter,[3]; [9],partially
same,binding of RtsA to the hilA promoter,[4]; 100 μM fatty acid,prevented binding to the hilA promoter
same,binding of RtsA to the hilA promoter,[4]; [9],partially
same,binding of HilD to the hilA promoter,"[5]; 20 μM fatty acid, 10 nM hilA promoter DNA",completely inhibited from binding hilA promoter DNA
same,binding of HilD to the hilA promoter,"[5]; 1, 2, 5 and 10 μM fatty acid",partially
same,effect on HilD stability,[6],no effect on its stability
"CCCCCCCCCCCCC/C=C/C(=O)O [trans-2-hexadecenoic acid, reference compound]",less potent in repressing hilA than the cis-isomer,"[1]; FIG. 1A, 20 μM fatty acids per legend",31 fold
CCCCCCC/C=C\C(=O)O [cis-2-decenoic acid],reduction of hilA expression,[1]; [7],28%
"CCCCCCCCCCCCCCCCC/C=C\C(=O)OC [cis-2-eicosenoic acid methyl ester, reference compound]",repression of hilA expression,"[1]; 40 μM methyl ester, FIG. 2B",not to significantly repress hilA expression
"CCCCCCCCCCCCC/C=C\C(=O)OC [cis-2-hexadecenoic acid methyl ester, reference compound]",repression of hilA expression,"[1]; 20 μM methyl ester, FIG. 2A",not to significantly repress hilA expression
"CCCCCCCC/C=C\CCCCCCCC(=O)O [oleic acid, cis-9-octadecenoic acid, reference compound]",repression of hilA expression,[1]; [8],1.2 fold
CCCCCCCCCCCCCCCCC/C=C\C(=O)O [cis-2-eicosenoic acid],reduction of hilA expression,[1]; [7],10 fold
same,repression of hilA expression,[1]; [8],3 fold
